Biological target: benzodiazepine receptors
Assay: displacement of radioactive labelled flunitrazepam from benzodiazepine receptors
Type: binding
Experimental: In the following Table, Ki values are shown for Examples 1-19 which include comparative compounds 1, 7, 9 and 11, which are not compounds of the subject invention but are structurally similar.
The Ki value is determined from a concentration response curve obtained in the presence and absence of a fixed concentration of competitive […], flunitrazepam. […] The lower Ki value indicates a higher affinity for benzodiazepine.

Ki	SMILES
114 nM	CC1Oc2ccccc2-n2cnc(-c3noc(C4CC4)n3)c21 (stereo not shown) [Example 12, 3-(5-Cyclopropyl-1,2,4-oxadiazol-3-yl)-4-methyl-4H-imidazo(5,1-c)(1,4)benzoxazine]
65.4 nM	Nc1ccc2c(c1)OCc1c(-c3noc(C4CC4)n3)ncn1-2 [Example 5, 7-Amino-3-(5-cyclopropyl-1,2,4-oxadiazol-3-yl)-4H-imidazo(5,1-c)(1,4)benzoxazine]
656 nM	O=c1oc2ccccc2n2cnc(-c3noc(C4CC4)n3)c12 [Example 10, 3-(5-Cyclopropyl-1,2,4-oxadiazol-3-yl)-4-oxo-4H-imidazo(5,1-c)(1,4)benzoxazine]
8.56 nM	Fc1ccc2c(c1)OCc1c(-c3noc(C4CC4)n3)ncn1-2 [Example 13, 3-(5-Cyclopropyl-1,2,4-oxadiazol-3-yl)-7-fluoro-4H-imidazo(5,1-c)(1,4)benzoxazine]
67.1 nM	CC1(C)Oc2ccccc2-n2cnc(-c3noc(C4CC4)n3)c21 [Example 14, 3-(5-Cyclopropyl-1,2,4-oxadiazol-3-yl)-4,4-dimethyl-4H-imidazo(5,1-c)(1,4)benzoxazine]
32.4 nM	CC(C)(C)OC(=O)c1ncn2c1COc1cc(F)ccc1-2 [Example 16, Tert-butyl 7-fluoro-4H-imidazo(5,1-c)(1,4)benzoxazine-3-carboxylate]

More lines, now with the values behind:

SMILES	Ki
CC(C)(C)OC(=O)Nc1ccc2c(c1)OCc1c(-c3noc(C4CC4)n3)ncn1-2 [Example 2, 7-(Amino(t-butoxycarbonyl))-3-(5-cyclopropyl-1,2,4-oxadiazol-3-yl)-4H-imidazo(5,1-c)(1,4)benzoxazine]	10000 nM
CC(C)(C)c1nc(-c2ncn3c2COc2cc(F)ccc2-3)no1 [Example 17, 3-(5-Tert-butyl-1,2,4-oxadiazol-3-yl)-7-fluoro-4H-imidazo(5,1-c)(1,4)benzoxazine]	443 nM
CC(C)(C)OC(=O)Nc1ccc2c(c1)OC(OC(=O)c1ccccc1)c1c(-c3noc(C4CC4)n3)ncn1-2 (stereo not shown) [Example 6, 7-(Amino(t-butoxycarbonyl))3-(5-cyclopropyl-1,2,4-oxadiazol-3-yl)-4-(benzoyloxy)-4H-imidazo(5,1-c)(1,4)benzoxazine]	10000 nM
O=C(OC1Oc2ccccc2-n2cnc(-c3noc(C4CC4)n3)c21)c1ccccc1 (stereo not shown) [Example 3, 3-(5-Cyclopropyl-1,2,4-oxadiazol-3-yl)-4-(benzoyloxy)-4H-imidazo(5,1-c)(1,4)benzoxazine]	121 nM
c1ccc2c(c1)OCc1c(-c3noc(C4CC4)n3)ncn1-2 [Example 1, 3-(5-Cyclopropyl-1,2,4-oxadiazol-3-yl)-4H-imidazo(5,1-c)(1,4)benzoxazine, reference compound]	39.7 nM
CC(C)(C)OC(=O)c1ncn2c1COc1c-2ccc(F)c1C#N [Example 19, Tert-butyl 6-cyano-7-fluoro-4H-imidazo(5,1-c)(1,4)benzoxazine-3-carboxylate]	4.6 nM
O=C(Nc1ccc2c(c1)OCc1c(-c3noc(C4CC4)n3)ncn1-2)C(F)(F)F [Example 8, 7-(Amino(trifluoroacetyl))-3-(5-cyclopropyl-1,2,4-oxadiazol-3-yl)-4H-imidazo(5,1-c)(1,4)benzoxazine]	10000 nM
CN(C)c1noc(-c2ncn3c2COc2cc(F)ccc2-3)n1 [Example 18, 3-(3-dimethylamino-1,2,4-oxadiazol-5-yl)-7-fluoro-4H-imidazo(5,1-c)(1,4)benzoxazine]	154 nM
CCOC(=O)c1ncn2c1COc1cc(F)ccc1-2 [Example 15, Ethyl 7-fluoro-4H-imidazo(5,1-c)(1,4)benzoxazine-3-carboxylate]	4.59 nM
OC1Oc2ccccc2-n2cnc(-c3noc(C4CC4)n3)c21 (stereo not shown) [Example 4, 3-(5-Cyclopropyl-1,2,4-oxadiazol-3-yl)-4-hydroxy-4H-imidazo(5,1-c)(1,4)benzoxazine]	118 nM
CC(C)(C)OC(=O)c1ncn2c1COc1ccccc1-2 [Example 11, Tert-butyl 4H-imidazo(5,1-c)(1,4)benzoxazine-3-carboxylate, reference compound]	69.9 nM
c1ccc2c(c1)OCc1c(-c3nc(C4CC4)no3)ncn1-2 [Example 9, 3-(3-Cyclopropyl-1,2,4-oxadiazol-5-yl)-4H-imidazo(5,1-c)(1,4)benzoxazine, reference compound]	72.6 nM
CCOC(=O)c1ncn2c1COc1ccccc1-2 [Example 7, Ethyl 4H-imidazo(5,1-c)(1,4)benzoxazine-3-carboxylate, reference compound]	59.6 nM
